Values joined by “and” are separate entries in the source; they are usually repeats but may differ in a detail not shown here. Identical values can stand only once. Inconclusive results and toxic doses are left out.

The subject of the assay is BDF1 mice, P388 leukemia ip, median survival T/C. Description: NCI In Vivo Anticancer Drug Screen. Data for tumor model P388 Leukemia (intraperitoneal) in B6D2F1 (BDF1) mice. The settings on record: endpoint: median survival time, higher = longer survival. The method in brief:
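Survival ratio, drug arm over vehicle arm, in mice with a transplanted tumour.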

Where [1] appears, read: dose: 100.0 mg/kg/injection, schedule: Q04DX003 (ip), vehicle: Klucel (hydroxypropylcellulose) (HPC).
Where [2] appears, read: dose: 200.0 mg/kg/injection, schedule: Q04DX003 (ip), vehicle: saline with Tween-80.
The mark [3] stands for this setting: dose: 100.0 mg/kg/injection, schedule: Q04DX003 (ip), vehicle: saline with Tween-80.
The mark [4] stands for this setting: dose: 400.0 mg/kg/injection, schedule: Q04DX003 (ip), vehicle: saline with Tween-80.
Setting [5] is: dose: 100.0 mg/kg/injection, schedule: Q01DX005 (ip), vehicle: saline with Tween-80.
[6] abbreviates: dose: 200.0 mg/kg/injection, schedule: Q01DX005 (ip), vehicle: saline with Tween-80.
[7] abbreviates: dose: 50.0 mg/kg/injection, schedule: Q01DX009 (ip), vehicle: saline with Tween-80.
[8] abbreviates: dose: 200.0 mg/kg/injection, schedule: Q04DX003 (ip), vehicle: Klucel (hydroxypropylcellulose) (HPC).
Setting [9] is: dose: 400.0 mg/kg/injection, schedule: Q04DX003 (ip), vehicle: Klucel (hydroxypropylcellulose) (HPC).
Where [10] appears, read: dose: 50.0 mg/kg/injection, schedule: Q01DX009 (ip), vehicle: Klucel (hydroxypropylcellulose) (HPC).
The mark [11] stands for this setting: dose: 100.0 mg/kg/injection, schedule: Q01DX009 (ip), vehicle: Klucel (hydroxypropylcellulose) (HPC).
Where [12] appears, read: dose: 200.0 mg/kg/injection, schedule: Q01DX009 (ip), vehicle: Klucel (hydroxypropylcellulose) (HPC).
Setting [13] is: dose: 100.0 mg/kg/injection, schedule: Q01DX009 (ip), vehicle: saline with Tween-80.
Where [14] appears, read: dose: 200.0 mg/kg/injection, schedule: Q01DX009 (ip), vehicle: saline with Tween-80.

In the case of `Cc1cc(C)c(-c2cc(O)c(C)cc2O)c(C)c1`, the T/C is 103 % of control (dose: 0.39 mg/kg/injection, schedule: Q04DX003 (ip), vehicle: other); 108 % of control (dose: 0.78 mg/kg/injection, schedule: Q04DX003 (ip), vehicle: other); 104 % of control (dose: 1.56 mg/kg/injection, schedule: Q04DX003 (ip), vehicle: other); 90 % of control and 108 % of control (dose: 3.12 mg/kg/injection, schedule: Q04DX003 (ip), vehicle: other); 88 % of control and 100 % of control (dose: 6.25 mg/kg/injection, schedule: Q04DX003 (ip), vehicle: other); 97 % of control (dose: 12.5 mg/kg/injection, schedule: Q01DX009 (ip), vehicle: other). Besides, the T/C (dose: 12.5 mg/kg/injection, schedule: Q04DX003 (ip), vehicle: other) is 108 % of control and 109 % of control; the T/C (dose: 25.0 mg/kg/injection, schedule: Q01DX009 (ip), vehicle: other) is 118 % of control; the T/C (dose: 25.0 mg/kg/injection, schedule: Q04DX003 (ip), vehicle: other) was 92 % of control; the T/C (dose: 25.0 mg/kg/injection, schedule: Q04DX003 (ip), vehicle: saline with Tween-80) was 100 % of control; the T/C (dose: 65.0 mg/kg/injection, schedule: Q04DX003 (ip), vehicle: Klucel (hydroxypropylcellulose) (HPC)) was 105 % of control; the T/C (dose: 100.0 mg/kg/injection, schedule: Q01DX009 (ip), vehicle: other) was 102 % of control. The T/C by setting is: under setting [1], 114 % of control; (dose: 150.0 mg/kg/injection, schedule: Q04DX003 (ip), vehicle: Klucel (hydroxypropylcellulose) (HPC)) 109 % of control; under setting [2], 93 % of control.
Turning to `Cc1c(C)c(Br)c(C)c(-c2c(O)c(Br)c(-c3c(C)c(C)c(C)c(Br)c3C)c(O)c2Br)c1C`, the T/C is, setting by setting: under setting [3], 100 % of control; under setting [2], 90 % of control; under setting [4], 90 % of control.
On to `CCOC(=O)c1sc2nc(C)cc(C)c2c1N`, for which the T/C under setting [5] was 100 % of control and the T/C under setting [6] is 110 % of control.
Take `C=CCN(CC=C)C(=O)OCC`: the T/C reads like this: under setting [3], 100 % of control; under setting [2], 120 % of control; under setting [4], 104 % of control.
Regarding `CSc1cccc(NC(=O)Oc2cc(C)c(Cl)c(C)c2Cl)c1`, the T/C by setting is: (dose: 6.25 mg/kg/injection, schedule: Q01DX009 (ip), vehicle: DMSO) 117 % of control; (dose: 12.5 mg/kg/injection, schedule: Q01DX009 (ip), vehicle: DMSO) 102 % of control.
On to `O=C1OC2(CCCCC2)Cc2oc3ccccc3c(=O)c21`, for which the T/C runs as follows: (dose: 50.0 mg/kg/injection, schedule: Q01DX005 (ip), vehicle: Klucel (hydroxypropylcellulose) (HPC)) 87 % of control; (dose: 200.0 mg/kg/injection, schedule: Q01DX005 (ip), vehicle: Klucel (hydroxypropylcellulose) (HPC)) 92 % of control.
On to `CN(C)c1ccc(/C=C/c2ccnc3ccc(I)cc23)cc1`, for which the T/C by setting is: (dose: 6.25 mg/kg/injection, schedule: Q01DX009 (ip), vehicle: saline with Tween-80) 96 % of control; (dose: 12.5 mg/kg/injection, schedule: Q01DX009 (ip), vehicle: saline with Tween-80) 119 % of control; under setting [7], 116 % of control.
Turning to `O=C(c1ccccc1Cl)n1c(Cl)c(/C=N\Nc2cccc([N+](=O)[O-])c2)c2ccccc21`, the T/C was 90 % of control (dose: 100.0 mg/kg/injection, schedule: Q04DX002 (ip), vehicle: Klucel (hydroxypropylcellulose) (HPC)); 89 % of control (dose: 200.0 mg/kg/injection, schedule: Q04DX002 (ip), vehicle: Klucel (hydroxypropylcellulose) (HPC)); 90 % of control (dose: 400.0 mg/kg/injection, schedule: Q04DX002 (ip), vehicle: Klucel (hydroxypropylcellulose) (HPC)).
As to `CCOC(=O)C(NC(=O)OCc1ccccc1)(OCc1ccccc1)C(C)C` (stereo unspecified), the T/C runs as follows: under setting [3], 97 % of control; under setting [2], 105 % of control; under setting [4], 94 % of control.
As for `CC(C)=CCCC(C)=C(C(=O)O)C(=O)O`, the T/C reads like this: under setting [1], 113 % of control; under setting [8], 111 % of control; under setting [9], 110 % of control.
As for `Oc1ccc(Br)c2cccnc12`, the T/C is 91 % of control (dose: 25.0 mg/kg/injection, schedule: Q01DX009 (ip), vehicle: Klucel (hydroxypropylcellulose) (HPC)); 111 % of control under setting [10]; 98 % of control under setting [11]; 102 % of control under setting [12]; 100 % of control (dose: 200.0 mg/kg/injection, schedule: Q01DX010 (ip), vehicle: saline).
`CN(C)NC1OC(C(O)S(=O)(=O)O)C(OCc2ccccc2)C(OCc2ccccc2)C1O` (stereo unspecified): the T/C reads like this: under setting [7], 109 % of control; under setting [13], 98 % of control; under setting [14], 94 % of control.
Take `N#CCc1nc2ccccc2[nH]1`: the T/C under setting [10] was 104 % of control, the T/C under setting [11] is 109 % of control and the T/C under setting [12] is 95 % of control.
For `C(CC1CO1)CC1OC1CC1CO1` (stereo unspecified), the T/C runs as follows: (dose: 65.0 mg/kg/injection, schedule: Q04DX003 (ip), vehicle: saline) 113 % of control; (dose: 67.0 mg/kg/injection, schedule: Q04DX003 (ip), vehicle: saline with Tween-80) 113 % of control; under setting [3], 122 % of control; (dose: 100.0 mg/kg/injection, schedule: Q04DX003 (ip), vehicle: saline) 109 % of control; (dose: 150.0 mg/kg/injection, schedule: Q04DX003 (ip), vehicle: saline with Tween-80) 181 % of control; (dose: 150.0 mg/kg/injection, schedule: Q04DX003 (ip), vehicle: saline) 154 % of control. Also, for the setting “dose: 225.0 mg/kg/injection, schedule: Q04DX003 (ip), vehicle: saline with Tween-80”, the T/C is 181 % of control.
In the case of `CCOC(=O)c1ccc(NCC#N)cc1`, the T/C reads like this: under setting [13], 90 % of control; under setting [14], 100 % of control; (dose: 400.0 mg/kg/injection, schedule: Q01DX009 (ip), vehicle: saline with Tween-80) 100 % of control.
For the compound `Cc1ccc(N=Nc2nc3nc(N)[nH]c(=O)c3[nH]2)cc1`, the T/C by setting is: (dose: 50.0 mg/kg/injection, schedule: Q01DX005 (ip), vehicle: saline with Tween-80) 100 % of control; under setting [5], 105 % of control; under setting [6], 87 % of control.
Consider `COC(=O)C1C(O)C(C)C(O)C(C)(O)C=C(C)C2=C3C(=C(C)C(=O)c4c(O)c(c(C)c(OC(C)=O)c43)NC(=O)C(C)=C/C=C\C(C)(O)C(O)C(C)C1O)OCO2` (stereo unspecified), for which the T/C is 119 % of control under setting [10], 110 % of control under setting [11] and 116 % of control under setting [12].
For `Clc1ncnc2nc[nH]c12`, the T/C is, setting by setting: (dose: 7.5 mg/kg/injection, schedule: Q01DX010 (ip), vehicle: saline) 92 % of control and 118 % of control; (dose: 15.0 mg/kg/injection, schedule: Q01DX010 (ip), vehicle: saline) 92 % of control and 122 % of control; (dose: 30.0 mg/kg/injection, schedule: Q01DX010 (ip), vehicle: saline) 100 % of control; (dose: 60.0 mg/kg/injection, schedule: Q01DX010 (ip), vehicle: saline) 100 % of control.
Turning to `C(=C/c1ccc(/C=C/c2ccccc2)cc1)/c1ccccc1`, the T/C (dose: 65.0 mg/kg/injection, schedule: Q01DX009 (ip), vehicle: Klucel (hydroxypropylcellulose) (HPC)) was 100 % of control; the T/C (dose: 66.7 mg/kg/injection, schedule: Q01DX009 (ip), vehicle: Klucel (hydroxypropylcellulose) (HPC)) was 111 % of control; the T/C under setting [11] was 94 % of control and 95 % of control; the T/C under setting [1] was 90 % of control; the T/C (dose: 150.0 mg/kg/injection, schedule: Q01DX009 (ip), vehicle: Klucel (hydroxypropylcellulose) (HPC)) is 100 % of control and 116 % of control; the T/C under setting [8] was 110 % of control. The T/C reads like this: (dose: 400.0 mg/kg/injection, schedule: Q01DX009 (ip), vehicle: Klucel (hydroxypropylcellulose) (HPC)) 113 % of control; under setting [9], 105 % of control.
On to `Oc1c(-c2ccccc2)cc(-[n+]2c(-c3ccccc3)cc(-c3ccc(-c4ccccc4)cc3)cc2-c2ccccc2)cc1-c1ccccc1`, for which the T/C is 107 % of control (dose: 25.0 mg/kg/injection, schedule: Q01DX001 (ip), vehicle: saline with Tween-80); 98 % of control (dose: 50.0 mg/kg/injection, schedule: Q01DX001 (ip), vehicle: saline with Tween-80); 102 % of control (dose: 100.0 mg/kg/injection, schedule: Q01DX001 (ip), vehicle: saline with Tween-80).

Values taken from PubChem BioAssay AID328 (DTP/NCI, 2004).
